# Results taken from US3992536A, “Pharmaceutical compositions containing a 1-phenyl-2,2,4,4-C1 -C2 alkyl-3-[4-phenyl of pyridyl)-piperazino]-cyclobutanol-(1) and method of use” (Boehringer Ingelheim GmbH, priority 1972, dated 1976).
# Assays:
# [1] = system: mice; experiment: Muscle relaxing and sedative activity in mice (slowly rotating wire cylinders, Young and Lewis); assay type: in vivo, NMRI-mice, female; settings: Mus musculus, po, read-out: ED50 (50% of the animals fall out of rotating cylinder)
# Description: 2. Muscle relaxing and sedative activity in mice:
# The muscle relaxing and sedative activity was tested according to the method of Young and Lewis (Science 105, 368 (1947)) with female NMRI-mice of a specific breed having a body weight of from 20 to 26 gm. The test apparatus comprises slowly turning wire cylinders, sloped for 30° against the vertical line (length: 43 cm; diameter: 22 cm; mesh-size of the wire netting: 0.6 cm). After peroral administration of a suspension of the substance under test in 1% tylose suspension to groups of 10 mice/dose, their bearing in the slowly rotating cylinders (2 rotations/minute) was observed and was compared with a control group. The dose (ED50) which caused 50% of the animals to fall out after certain test times was determined graphically: […]
# [2] = system: mice; experiment: Activity on the spontaneous motility in mice (inhibition, photoelectric barriers, Friebel, Sommer and Varadan); assay type: in vivo, SPF-NMRI-mice, female; settings: Mus musculus, po, read-out: ED50 (50% inhibition of spontaneous motility)
# Description: 1. Activity on the spontaneous motility in mice:
# The inhibition of spontaneous motility was determined with the aid of photoelectric barriers using an adaption of the method of Friebel, Sommer and Varadan (Arzneimittelforschung 9, 126 (1959)). SPF-NMRI-mice from our own breeding colony, having a body weight between 20 and 26 gm, were used. The number of interruptions in the flow of light was measured by ten photoelectric cells uniformly distributed in the bottom of a cylindrical cage, 25 cm in diameter, using a counting device. Thus, the spontaneous motility was registered as the animals moved over the bottom of the cage. 5 female mice were placed in each cage and their activity after application of the substance was measured for different periods of time relative to control mice. The present decrease in motility observed after application of various dosages relative to sham treated control animals was determined by graphical extrapolation, so that the dosage necessary for a 50% inhibition of spontaneous motility (ED50) could be obtained: […]
# [3] = Acute Toxicity (oral, Litchfield and Wilcoxon); assay type: in vivo; settings: mouse, in vivo, po; mice; death within 14 days after application
# Description: (§1) The acute toxicity was determined after oral administration to groups of 10 mice (sex ratio 1:1) from our own breeding colony.
# [4] = system: mice; experiment: Acute Toxicity (oral, Litchfield and Wilcoxon); assay type: in vivo; settings: p.o., within 14 days, printed beside LD50 >3200 mgm/kg
# Description: as §1
smiles,measurement,setting,value
CC1(C)[C@H](N2CCN(c3ccccn3)CC2)C(C)(C)[C@@]1(O)c1ccc(O)cc1 [A],ED50,[1]; after 30-60 minutes,5.5 mg/kg
same,ED50,[1]; after 90-120 minutes,7.5 mg/kg
same,ED50,[1]; after 210-240 minutes,8.5 mg/kg
same,ED50,[1]; after 270-300 minutes,7.5 mg/kg
same,ED50,[2]; after 30-45 minutes,7.5 mg/kg
same,ED50,[2]; after 90-105 minutes,11 mg/kg
same,ED50,[2]; after 150-165 minutes,6 mg/kg
same,LD50 at 336 h,[3],338 mg/kg
CC1(C)[C@H](N2CCN(c3ccccc3)CC2)C(C)(C)[C@@]1(O)c1ccc(O)cc1 [B],ED50,[1]; after 30-60 minutes,26 mg/kg
same,ED50,[1]; after 90-120 minutes,11 mg/kg
same,ED50,[1]; after 210-240 minutes,6 mg/kg
same,ED50,[1]; after 270-300 minutes,5.5 mg/kg
same,ED50,[2]; after 30-45 minutes,> 50 mg/kg
same,ED50,[2]; after 90-105 minutes,3 mg/kg
same,ED50,[2]; after 150-165 minutes,4 mg/kg
same,LD50 at 336 h,[3],1340 mg/kg
COc1ccc(N2CCN([C@H]3C(C)(C)[C@](O)(c4ccc(O)cc4)C3(C)C)CC2)cc1 [C],ED50,[1]; after 30-60 minutes,20 mg/kg
same,ED50,[1]; after 90-120 minutes,16 mg/kg
same,ED50,[1]; after 210-240 minutes,34 mg/kg
same,ED50,[1]; after 270-300 minutes,15.5 mg/kg
same,ED50,[2]; after 30-45 minutes,11 mg/kg
same,ED50,[2]; after 90-105 minutes,7.5 mg/kg
same,ED50,[2]; after 150-165 minutes,6 mg/kg
same,LD50 at 336 h,[3],> 6400 mg/kg
COc1ccc([C@]2(O)C(C)(C)[C@@H](N3CCN(c4ccccc4)CC3)C2(C)C)cc1OC [D],ED50,[1]; after 30-60 minutes,> 40 mg/kg
same,ED50,[1]; after 90-120 minutes,32 mg/kg
same,ED50,[1]; after 210-240 minutes,16 mg/kg
same,ED50,[1]; after 270-300 minutes,14 mg/kg
same,ED50,[2]; after 30-45 minutes,26 mg/kg
same,ED50,[2]; after 90-105 minutes,22 mg/kg
same,ED50,[2]; after 150-165 minutes,3 mg/kg
same,LD50 at 336 h,[3],2900 mg/kg
CC1(C)[C@H](N2CCN(c3ccc(O)cc3)CC2)C(C)(C)[C@@]1(O)c1ccc(O)cc1 [E],ED50,[1]; after 30-60 minutes,10 mg/kg
same,ED50,[1]; after 90-120 minutes,13 mg/kg
same,ED50,[1]; after 210-240 minutes,9 mg/kg
same,ED50,[1]; after 270-300 minutes,3 mg/kg
same,ED50,[2]; after 30-45 minutes,5 mg/kg
same,ED50,[2]; after 90-105 minutes,5 mg/kg
same,ED50,[2]; after 150-165 minutes,< 2.5 mg/kg
same,LD50 at 336 h,[3],> 3200 mg/kg
same,animals died,[4],0 out of 10
CC(C)c1ccc([C@]2(O)C(C)(C)[C@@H](N3CCN(c4ccccc4)CC3)C2(C)C)cc1 [F],ED50,[1]; after 30-60 minutes,29 mg/kg
same,ED50,[1]; after 90-120 minutes,4 mg/kg
same,ED50,[1]; after 210-240 minutes,2 mg/kg
same,ED50,[1]; after 270-300 minutes,3 mg/kg
same,ED50,[2]; after 30-45 minutes,95 mg/kg
same,ED50,[2]; after 90-105 minutes,5 mg/kg
same,ED50,[2]; after 150-165 minutes,2 mg/kg
same,LD50 at 336 h,[3],> 800 mg/kg
CC(C)c1ccc([C@]2(O)C(C)(C)[C@@H](N3CCN(c4ccccn4)CC3)C2(C)C)cc1 [G],ED50,[1]; after 30-60 minutes,11 mg/kg
same,ED50,[1]; after 90-120 minutes,8 mg/kg
same,ED50,[1]; after 210-240 minutes,3 mg/kg
same,ED50,[1]; after 270-300 minutes,8 mg/kg
same,ED50,[2]; after 30-45 minutes,7 mg/kg
same,ED50,[2]; after 90-105 minutes,3 mg/kg
same,ED50,[2]; after 150-165 minutes,5 mg/kg
same,LD50 at 336 h,[3],118 mg/kg
CC1(C)[C@H](N2CCN(c3ccccn3)CC2)C(C)(C)[C@@]1(O)c1ccc(Cl)cc1 [H],ED50,[1]; after 30-60 minutes,13 mg/kg
same,ED50,[1]; after 90-120 minutes,22 mg/kg
same,ED50,[1]; after 210-240 minutes,19 mg/kg
same,ED50,[1]; after 270-300 minutes,15 mg/kg
same,ED50,[2]; after 30-45 minutes,> 13 mg/kg
same,ED50,[2]; after 90-105 minutes,31 mg/kg
same,ED50,[2]; after 150-165 minutes,> 13 mg/kg
same,LD50 at 336 h,[3],442 mg/kg
CC(C)(C)c1ccc([C@]2(O)C(C)(C)[C@@H](N3CCN(c4ccccn4)CC3)C2(C)C)cc1 [I],ED50,[1]; after 30-60 minutes,16 mg/kg
same,ED50,[1]; after 90-120 minutes,10 mg/kg
same,ED50,[1]; after 210-240 minutes,17 mg/kg
same,ED50,[1]; after 270-300 minutes,14 mg/kg
same,ED50,[2]; after 30-45 minutes,16 mg/kg
same,ED50,[2]; after 90-105 minutes,3 mg/kg
same,ED50,[2]; after 150-165 minutes,3 mg/kg
CC(C)(C)c1ccc([C@]2(O)C(C)(C)[C@@H](N3CCN(c4ccccc4)CC3)C2(C)C)cc1 [K],ED50,[1]; after 30-60 minutes,48 mg/kg
same,ED50,[1]; after 90-120 minutes,8 mg/kg
same,ED50,[1]; after 210-240 minutes,6 mg/kg
same,ED50,[1]; after 270-300 minutes,1 mg/kg
same,ED50,[2]; after 30-45 minutes,15 mg/kg
same,ED50,[2]; after 90-105 minutes,3 mg/kg
same,ED50,[2]; after 150-165 minutes,2 mg/kg
CCC(C)c1ccc([C@]2(O)C(C)(C)[C@@H](N3CCN(c4ccccn4)CC3)C2(C)C)cc1 (stereo partly shown) [L],ED50,[1]; after 30-60 minutes,5 mg/kg
same,ED50,[1]; after 90-120 minutes,4 mg/kg
same,ED50,[1]; after 210-240 minutes,2 mg/kg
same,ED50,[1]; after 270-300 minutes,1 mg/kg
same,ED50,[2]; after 30-45 minutes,7 mg/kg
same,ED50,[2]; after 90-105 minutes,1 mg/kg
same,ED50,[2]; after 150-165 minutes,1 mg/kg
same,LD50 at 336 h,[3],162 mg/kg
CC(C)Cc1ccc([C@]2(O)C(C)(C)[C@@H](N3CCN(c4ccccn4)CC3)C2(C)C)cc1 [M],ED50,[1]; after 30-60 minutes,4 mg/kg
same,ED50,[1]; after 90-120 minutes,4 mg/kg
same,ED50,[1]; after 210-240 minutes,3 mg/kg
same,ED50,[1]; after 270-300 minutes,2 mg/kg
same,ED50,[2]; after 30-45 minutes,9 mg/kg
same,ED50,[2]; after 90-105 minutes,> 3 mg/kg
same,ED50,[2]; after 150-165 minutes,0.4 mg/kg
CC(C)Cc1ccc([C@]2(O)C(C)(C)[C@@H](N3CCN(c4ccccc4)CC3)C2(C)C)cc1 [N],ED50,[1]; after 30-60 minutes,65 mg/kg
same,ED50,[1]; after 90-120 minutes,3 mg/kg
same,ED50,[1]; after 210-240 minutes,2 mg/kg
same,ED50,[1]; after 270-300 minutes,3 mg/kg
same,ED50,[2]; after 30-45 minutes,8 mg/kg
same,ED50,[2]; after 90-105 minutes,2 mg/kg
same,ED50,[2]; after 150-165 minutes,1 mg/kg
CCC(C)c1ccc([C@]2(O)C(C)(C)[C@@H](N3CCN(c4ccccc4)CC3)C2(C)C)cc1 (stereo partly shown) [O],ED50,[1]; after 30-60 minutes,1 mg/kg
same,ED50,[1]; after 90-120 minutes,1 mg/kg
same,ED50,[1]; after 210-240 minutes,2 mg/kg
same,ED50,[1]; after 270-300 minutes,1 mg/kg
same,ED50,[2]; after 30-45 minutes,9 mg/kg
same,ED50,[2]; after 90-105 minutes,3 mg/kg
same,ED50,[2]; after 150-165 minutes,2 mg/kg
same,LD50 at 336 h,[3],800 mg/kg
CCCCc1ccc([C@]2(O)C(C)(C)[C@@H](N3CCN(c4ccccn4)CC3)C2(C)C)cc1 [P],ED50,[1]; after 30-60 minutes,15 mg/kg
same,ED50,[1]; after 90-120 minutes,4 mg/kg
same,ED50,[1]; after 210-240 minutes,3 mg/kg
same,ED50,[1]; after 270-300 minutes,6 mg/kg
same,ED50,[2]; after 30-45 minutes,9 mg/kg
same,ED50,[2]; after 90-105 minutes,3 mg/kg
same,ED50,[2]; after 150-165 minutes,2 mg/kg
CCCCc1ccc([C@]2(O)C(C)(C)[C@@H](N3CCN(c4ccccc4)CC3)C2(C)C)cc1 [Q],ED50,[1]; after 30-60 minutes,> 200 mg/kg
same,ED50,[1]; after 90-120 minutes,22 mg/kg
same,ED50,[1]; after 210-240 minutes,8 mg/kg
same,ED50,[1]; after 270-300 minutes,8 mg/kg
same,ED50,[2]; after 30-45 minutes,34 mg/kg
same,ED50,[2]; after 90-105 minutes,> 3 mg/kg
same,ED50,[2]; after 150-165 minutes,4 mg/kg
CC1(C)[C@H](N2CCN(c3ccccn3)CC2)C(C)(C)[C@@]1(O)c1cccc(Cl)c1 [R],ED50,[1]; after 30-60 minutes,46 mg/kg
same,ED50,[1]; after 90-120 minutes,8 mg/kg
same,ED50,[1]; after 210-240 minutes,8 mg/kg
same,ED50,[1]; after 270-300 minutes,11 mg/kg
same,ED50,[2]; after 30-45 minutes,> 25 mg/kg
same,ED50,[2]; after 90-105 minutes,12 mg/kg
same,ED50,[2]; after 150-165 minutes,13 mg/kg
